Data published in US4012382A, “α-Amino and α-formyl-α-(p-acyloxyphenyl)acetamidocephalosporanic acid derivatives” (priority 1974, dated 1977).
≈ marks a conversion by molar mass, not a printed value.

Experiments:
D. pneumoniae A9585 = assay: MIC, 2-fold broth dilution, D. pneumoniae A9585; assay type: cell-based; settings: Streptococcus pneumoniae, 10-3 dilution of overnite broth culture, 45% AAB + 5% serum + 50% NB
Procedure: (§1) *45% AAB + 5% serum + 50% NB
(§2) **Dilution of overnite broth culture
(§3) Minimal inhibitory concentrations were determined by the 2-fold broth dilution method utilizing equimolar concentrations of each compound.

Str. pyogenes A9604 = assay: MIC, 2-fold broth dilution, Str. pyogenes A9604; assay type: cell-based; settings: Streptococcus pyogenes, 10-3 dilution of overnite broth culture, 45% AAB + 5% serum + 50% NB
Procedure: as §1, §2, §3

S. aureus Smith A9537 = assay: MIC, 2-fold broth dilution, S. aureus Smith A9537; assay type: cell-based; settings: Staphylococcus aureus, SMITHA9537, Nutrient Broth, 10-4
Procedure: as §3

S. aureus BX1633 A9606 = assay: MIC, 2-fold broth dilution, S. aureus BX1633 A9606; assay type: cell-based; settings: Staphylococcus aureus, BX1633A9606, Nutrient Broth
Procedure: as §3

[1] = tested on: S. aureus Meth-Res A15097; assay: MIC, 2-fold broth dilution, S. aureus Meth-Res A15097; assay type: cell-based; settings: Staphylococcus aureus; Nutrient Broth; 10-3
Procedure: as §3

Sal. enteritidis A9531 = assay: MIC, 2-fold broth dilution, Sal. enteritidis A9531; assay type: cell-based; settings: Salmonella enterica, Nutrient Broth, 10-4
Procedure: as §3

E. coli Juhl A15119 = assay: MIC, 2-fold broth dilution, E. coli Juhl A15119; assay type: cell-based; settings: Escherichia coli, JUHLA15119; Nutrient Broth; 10-4
Procedure: as §3

E. coli A9675 = assay: MIC, 2-fold broth dilution, E. coli A9675; assay type: cell-based; settings: Escherichia coli, Nutrient Broth, 10-4
Procedure: as §3

K. pneumoniae A9977 = assay: MIC, 2-fold broth dilution, K. pneumoniae A9977; assay type: cell-based; settings: Klebsiella pneumoniae, Nutrient Broth, 10-4
Procedure: as §3

K. pneumoniae A15130 = assay: MIC, 2-fold broth dilution, K. pneumoniae A15130; assay type: cell-based; settings: Klebsiella pneumoniae, Nutrient Broth, 10-4
Procedure: as §3

Pr. mirabilis A9900 = assay: MIC, 2-fold broth dilution, Pr. mirabilis A9900; assay type: cell-based; settings: Proteus mirabilis, Nutrient Broth, 10-4
Procedure: as §3

Pr. morganii A15153 = assay: MIC, 2-fold broth dilution, Pr. morganii A15153; assay type: cell-based; settings: Morganella morganii, Nutrient Broth, 10-4
Procedure: as §3

Ps. aeruginosa A9843A = assay: MIC, 2-fold broth dilution, Ps. aeruginosa A9843A; assay type: cell-based; settings: Pseudomonas aeruginosa
Procedure: as §3

Ser. marcescens A20019 = assay: MIC, 2-fold broth dilution, Ser. marcescens A20019; assay type: cell-based; settings: Serratia marcescens, Nutrient Broth, 10-4
Procedure: as §3

Ent. cloacae A9656 = assay: MIC, 2-fold broth dilution, Ent. cloacae A9656; assay type: cell-based; settings: Enterobacter cloacae, Nutrient Broth, 10-4
Procedure: as §3

Ent. cloacae A9657 = assay: MIC, 2-fold broth dilution, Ent. cloacae A9657; assay type: cell-based; settings: Enterobacter cloacae, Nutrient Broth, 10-4
Procedure: as §3

Ent. cloacae A9659 = assay: MIC, 2-fold broth dilution, Ent. cloacae A9659; assay type: cell-based; settings: Enterobacter cloacae, Nutrient Broth, 10-4
Procedure: as §3

[2] = Hydrolysis in human serum (bioautographed paper chromatography); assay type: in vitro ADME
Procedure: (§4) Solutions of 0.5 mg./ml. of 7-D-(-)α-amino-α-p(-acetoxyphenylacetamido)desacetoxycephalosporanic acid (p-acetoxycephalexin) in normal saline and in human serum were prepared. Standard solutions of 0.5 mg./ml. of 7-D-(-)α-amino-α-p(-hydroxyphenylacetamido)desacetoxycephalosporanic acid (p-hydroxycephalexin) were also prepared in both normal saline and human serum.
(§5) All the above solutions were incubated at 37° C. with shaking and sampled for chromatography at time intervals of 0, 2, 4, 8 and 24 hours. The solutions, approximately 5 microliters per strip, were spotted on Whatman No. 1 half-inch strips which were dried and developed in a solvent system containing 80 parts butylacetate; 15 parts n-butanol; 40 parts acetic acid; and 24 parts water. The strips were then bioautographed on plates seeded with bacillus subtilis at a pH of 6.0.

[3] = Stability in normal saline (bioautographed paper chromatography); assay type: physicochemical; settings: 0.5 mg./ml. in normal saline, 37° C., sampled 0-24 hours
Procedure: as §4, §5

Compound | MIC (D. pneumoniae A9585) | MIC (Str. pyogenes A9604) | MIC (S. aureus Smith A9537) | MIC (S. aureus Smith A9537; + 50% serum) | MIC (S. aureus BX1633 A9606; 10-2) | MIC (S. aureus BX1633 A9606; 10-3) | MIC [1] | MIC (Sal. enteritidis A9531) | MIC (E. coli Juhl A15119) | MIC (E. coli A9675) | MIC (K. pneumoniae A9977) | MIC (K. pneumoniae A15130) | MIC (Pr. mirabilis A9900) | MIC (Pr. morganii A15153) | MIC (Ps. aeruginosa A9843A) | MIC (Ser. marcescens A20019) | MIC (Ent. cloacae A9656) | MIC (Ent. cloacae A9657) | MIC (Ent. cloacae A9659) | further results
CC(=O)Oc1ccc([C@@H](N)C(=O)N[C@@H]2C(=O)N3C(C(=O)O)=C(CSc4c[nH]nn4)CS[C@H]23)cc1 [RN 1396] | 0.04 µg/mL | 0.04 µg/mL | 0.16 µg/mL (≈ 0.317 µM) | 1 µg/mL | 4 µg/mL (≈ 7.93 µM) | 0.6 µg/mL (≈ 1.19 µM) | 8 µg/mL (≈ 15.9 µM) | 0.3 µg/mL (≈ 0.595 µM) | 2 µg/mL (≈ 3.96 µM) | 8 µg/mL (≈ 15.9 µM) | 1 µg/mL (≈ 1.98 µM) | 2 µg/mL (≈ 3.96 µM) | 0.5 µg/mL (≈ 0.991 µM) | 63 µg/mL (≈ 125 µM) | 125 µg/mL (≈ 248 µM) | 125 µg/mL (≈ 248 µM) | 125 µg/mL (≈ 248 µM) | 1 µg/mL (≈ 1.98 µM) | 32 µg/mL (≈ 63.4 µM) | –
N[C@@H](C(=O)N[C@@H]1C(=O)N2C(C(=O)O)=C(CSc3c[nH]nn3)CS[C@H]12)c1ccc(O)cc1 [Bl-S640, reference compound] | 0.04 µg/mL | 0.04 µg/mL | 0.3 µg/mL (≈ 0.649 µM) | 1 µg/mL | 1 µg/mL (≈ 2.16 µM) | 0.6 µg/mL (≈ 1.3 µM) | 4 µg/mL (≈ 8.65 µM) | 0.6 µg/mL (≈ 1.3 µM) | 0.5 µg/mL (≈ 1.08 µM) | 4 µg/mL (≈ 8.65 µM) | 0.5 µg/mL (≈ 1.08 µM) | 1 µg/mL (≈ 2.16 µM) | 0.5 µg/mL (≈ 1.08 µM) | 63 µg/mL (≈ 136 µM) | 125 µg/mL (≈ 270 µM) | 125 µg/mL (≈ 270 µM) | 125 µg/mL (≈ 270 µM) | 0.5 µg/mL (≈ 1.08 µM) | 32 µg/mL (≈ 69.2 µM) | –
CC(=O)Oc1ccc([C@@H](N)C(=O)N[C@@H]2C(=O)N3C(C(=O)O)=C(C)CS[C@H]23)cc1 [RN 1394, 7-D(-)2-amino-2-(4-acetoxyphenylacetamido)desacetoxycephalosporanic acid] | 0.08 µg/mL | 0.08 µg/mL | 0.6 µg/mL (≈ 1.48 µM) | 0.6 µg/mL | 2 µg/mL (≈ 4.93 µM) | 1 µg/mL (≈ 2.47 µM) | 32 µg/mL (≈ 78.9 µM) | 8 µg/mL (≈ 19.7 µM) | 32 µg/mL (≈ 78.9 µM) | 63 µg/mL (≈ 155 µM) | 16 µg/mL (≈ 39.5 µM) | 32 µg/mL (≈ 78.9 µM) | 8 µg/mL (≈ 19.7 µM) | > 125 µg/mL | > 125 µg/mL | > 125 µg/mL | > 125 µg/mL | 8 µg/mL (≈ 19.7 µM) | > 125 µg/mL | hydrolysis to the p-hydroxy form in human serum ([2]; 0.5 mg./ml. in human serum, 37° C., sampled 0-24 hours): quickly hydrolyzed to the p-hydroxy form; enzymatic hydrolysis to the p-hydroxy compound ([2]; enzymatic): hydrolyzed enzymatically; stability in normal saline ([3]; listed as 7-D-(-)α-amino-α-(p-acetoxyphenyl-acetamido)desacetoxycephalosporanic acid): stable in normal saline; stability in normal saline ([3]; listed as p-acetoxycephalexin): appears stable
CC1=C(C(=O)O)N2C(=O)[C@@H](NC(=O)[C@H](N)c3ccc(O)cc3)[C@H]2SC1 [BL-S 578-4, 7-D-(-)α-amino-α-(p-hydroxyphenylacetamido)desacetoxycephalosporanic acid, reference compound] | 0.6 µg/mL | 0.08 µg/mL | 1.3 µg/mL (≈ 3.58 µM) | 1.3 µg/mL | 2 µg/mL (≈ 5.5 µM) | 2 µg/mL (≈ 5.5 µM) | 16 µg/mL (≈ 44 µM) | 8 µg/mL (≈ 22 µM) | 16 µg/mL (≈ 44 µM) | 32 µg/mL (≈ 88.1 µM) | 16 µg/mL (≈ 44 µM) | 32 µg/mL (≈ 88.1 µM) | 8 µg/mL (≈ 22 µM) | > 125 µg/mL | > 125 µg/mL | > 125 µg/mL | > 125 µg/mL | 16 µg/mL (≈ 44 µM) | > 125 µg/mL | –
